Among the data in PubChem BioAssay AID1259407 (Chemical Carcinogenesis Research Information System (CCRIS), 2018) are mutagenic call values, retold here.

This data set deals with CCRIS mutagenicity, Ames/micronucleus/aberration tests. The experiment in a line: CCRIS mutagenicity studies.
Where [1] appears, read: Test System: AMES SALMONELLA TYPHIMURIUM, Strain/Indicator: TA98, Metabolic Activation: NONE, Method: STANDARD PLATE.
The mark [2] stands for this setting: Test System: AMES SALMONELLA TYPHIMURIUM, Strain/Indicator: TA100, Metabolic Activation: NONE, Method: STANDARD PLATE.
[3] abbreviates: Test System: AMES SALMONELLA TYPHIMURIUM, Strain/Indicator: TA98, Metabolic Activation: RAT, LIVER, S-9, AROCLOR 1254, Method: STANDARD PLATE.
Setting [4] is: Test System: AMES SALMONELLA TYPHIMURIUM, Strain/Indicator: TA100, Metabolic Activation: RAT, LIVER, S-9, AROCLOR 1254, Method: STANDARD PLATE.

The source made the active and inactive calls. No rule for the calls is given here.

Take `C=C(C)[C@H]1CC=C(C)CC1`: the mutagenic call is, setting by setting: (End Point: IN VITRO CHROMOSOMAL ABERRATIONS, Test System: CHO CELLS, Metabolic Activation: NONE) “inactive; negative”; (End Point: IN VITRO CHROMOSOMAL ABERRATIONS, Test System: CHO CELLS, Metabolic Activation: RAT, LIVER, S-9, AROCLOR 1254) “inactive; negative”; (Test System: AMES SALMONELLA TYPHIMURIUM, Strain/Indicator: TA98, Metabolic Activation: HAMSTER, LIVER, S-9, AROCLOR 1254, Method: PREINCUBATION) “inactive; negative”; (Test System: AMES SALMONELLA TYPHIMURIUM, Strain/Indicator: TA98, Metabolic Activation: NONE, Method: PREINCUBATION) “inactive; negative”; under setting [1], “inactive; negative”; (Test System: AMES SALMONELLA TYPHIMURIUM, Strain/Indicator: TA98, Metabolic Activation: RAT, LIVER, S-9, AROCLOR 1254, Method: PREINCUBATION) “inactive; negative”. In addition, the mutagenic call (Test System: AMES SALMONELLA TYPHIMURIUM, Strain/Indicator: TA98, Metabolic Activation: RAT, LIVER, S-9, AROCLOR, Method: STANDARD PLATE) is “inactive; negative”; the mutagenic call (Test System: AMES SALMONELLA TYPHIMURIUM, Strain/Indicator: TA100, Metabolic Activation: HAMSTER, LIVER, S-9, AROCLOR 1254, Method: PREINCUBATION) is “inactive; negative”; the mutagenic call (Test System: AMES SALMONELLA TYPHIMURIUM, Strain/Indicator: TA100, Metabolic Activation: NONE, Method: PREINCUBATION) was “inactive; negative”; the mutagenic call under setting [2] was “inactive; negative”; the mutagenic call (Test System: AMES SALMONELLA TYPHIMURIUM, Strain/Indicator: TA100, Metabolic Activation: RAT, LIVER, S-9, AROCLOR 1254, Method: PREINCUBATION) is “inactive; negative”; the mutagenic call (Test System: AMES SALMONELLA TYPHIMURIUM, Strain/Indicator: TA100, Metabolic Activation: RAT, LIVER, S-9, AROCLOR, Method: STANDARD PLATE) was “inactive; negative”. In addition, the mutagenic call runs as follows: (Test System: AMES SALMONELLA TYPHIMURIUM, Strain/Indicator: TA1535, Metabolic Activation: HAMSTER, LIVER, S-9, AROCLOR 1254, Method: PREINCUBATION) “inactive; negative”; (Test System: AMES SALMONELLA TYPHIMURIUM, Strain/Indicator: TA1535, Metabolic Activation: NONE, Method: PREINCUBATION) “inactive; negative”; (Test System: AMES SALMONELLA TYPHIMURIUM, Strain/Indicator: TA1535, Metabolic Activation: RAT, LIVER, S-9, AROCLOR 1254, Method: PREINCUBATION) “inactive; negative”; (Test System: AMES SALMONELLA TYPHIMURIUM, Strain/Indicator: TA1537, Metabolic Activation: HAMSTER, LIVER, S-9, AROCLOR 1254, Method: PREINCUBATION) “inactive; negative”; (Test System: AMES SALMONELLA TYPHIMURIUM, Strain/Indicator: TA1537, Metabolic Activation: NONE, Method: PREINCUBATION) “inactive; negative”; (Test System: AMES SALMONELLA TYPHIMURIUM, Strain/Indicator: TA1537, Metabolic Activation: RAT, LIVER, S-9, AROCLOR 1254, Method: PREINCUBATION) “inactive; negative”. For the same compound, the mutagenic call is “inactive; negative” (Test System: AMES SALMONELLA TYPHIMURIUM, Strain/Indicator: UTH8413, Metabolic Activation: NONE, Method: STANDARD PLATE); “inactive; negative” (Test System: AMES SALMONELLA TYPHIMURIUM, Strain/Indicator: UTH8413, Metabolic Activation: RAT, LIVER, S-9, AROCLOR, Method: STANDARD PLATE); “inactive; negative” (Test System: AMES SALMONELLA TYPHIMURIUM, Strain/Indicator: UTH8414, Metabolic Activation: NONE, Method: STANDARD PLATE); “inactive; negative” (Test System: AMES SALMONELLA TYPHIMURIUM, Strain/Indicator: UTH8414, Metabolic Activation: RAT, LIVER, S-9, AROCLOR, Method: STANDARD PLATE); “inactive; negative” (Test System: MOUSE LYMPHOMA, Strain/Indicator: L5178Y (TK+/TK-), Metabolic Activation: NONE, Method: SUSPENSION/PLATE); “active; positive” (Test System: MOUSE LYMPHOMA, Strain/Indicator: L5178Y (TK+/TK-), Metabolic Activation: RAT, LIVER, S-9, AROCLOR 1254, Method: SUSPENSION/PLATE).

Consider `Cn1cnc(-c2ccccc2)c1[N+](=O)[O-]`, for which, under setting [2], the mutagenic call is “active; positive”.

With `C#C[C@]1(O)CC[C@H]2[C@@H]3CCC4=CC(=O)CC[C@@H]4[C@H]3CC[C@@]21CC`, the mutagenic call runs as follows: (End Point: IN VITRO CHROMOSOMAL ABERRATIONS, Test System: HUMAN LYMPHOCYTES, Metabolic Activation: NONE) “active; positive at two higher doses (structural changes)”; (End Point: IN VITRO CHROMOSOMAL ABERRATIONS, Test System: HUMAN LYMPHOCYTES, Metabolic Activation: RAT, LIVER, S-9, PHENOBARBITONE) “active; positive at all dose levels (structural changes)”; (Test System: AMES SALMONELLA TYPHIMURIUM, Strain/Indicator: TA98, Metabolic Activation: MOUSE, LIVER, S-9, Method: STANDARD PLATE) “inactive; negative”; under setting [1], “inactive; negative”; under setting [3], “inactive; negative”; (Test System: AMES SALMONELLA TYPHIMURIUM, Strain/Indicator: TA100, Metabolic Activation: MOUSE, LIVER, S-9, Method: STANDARD PLATE) “inactive; negative”. Besides, the mutagenic call is, setting by setting: under setting [2], “inactive; negative”; under setting [4], “inactive; negative”; (Test System: AMES SALMONELLA TYPHIMURIUM, Strain/Indicator: TA1535, Metabolic Activation: MOUSE, LIVER, S-9, Method: STANDARD PLATE) “inactive; negative”; (Test System: AMES SALMONELLA TYPHIMURIUM, Strain/Indicator: TA1535, Metabolic Activation: NONE, Method: STANDARD PLATE) “inactive; negative”; (Test System: AMES SALMONELLA TYPHIMURIUM, Strain/Indicator: TA1535, Metabolic Activation: RAT, LIVER, S-9, AROCLOR 1254, Method: STANDARD PLATE) “inactive; negative”; (Test System: AMES SALMONELLA TYPHIMURIUM, Strain/Indicator: TA1537, Metabolic Activation: MOUSE, LIVER, S-9, Method: STANDARD PLATE) “inactive; negative”. Besides, the mutagenic call is, setting by setting: (Test System: AMES SALMONELLA TYPHIMURIUM, Strain/Indicator: TA1537, Metabolic Activation: NONE, Method: STANDARD PLATE) “inactive; negative”; (Test System: AMES SALMONELLA TYPHIMURIUM, Strain/Indicator: TA1537, Metabolic Activation: RAT, LIVER, S-9, AROCLOR 1254, Method: STANDARD PLATE) “inactive; negative”; (Test System: AMES SALMONELLA TYPHIMURIUM, Strain/Indicator: TA1538, Metabolic Activation: MOUSE, LIVER, S-9, Method: STANDARD PLATE) “inactive; negative”; (Test System: AMES SALMONELLA TYPHIMURIUM, Strain/Indicator: TA1538, Metabolic Activation: NONE, Method: STANDARD PLATE) “inactive; negative”; (Test System: AMES SALMONELLA TYPHIMURIUM, Strain/Indicator: TA1538, Metabolic Activation: RAT, LIVER, S-9, AROCLOR 1254, Method: STANDARD PLATE) “inactive; negative”.

In the case of `CC1(C)C[C@H]2C=C(C=O)[C@]34C[C@]3(C(=O)O[C@@H]4O)[C@H]2C1`, the mutagenic call (Test System: AMES SALMONELLA TYPHIMURIUM, Strain/Indicator: TA98, Metabolic Activation: NONE, Method: SPOT TEST) is “active; positive”; the mutagenic call under setting [1] was “active; positive”; the mutagenic call (Test System: AMES SALMONELLA TYPHIMURIUM, Strain/Indicator: TA100, Metabolic Activation: NONE, Method: SPOT TEST) is “inactive; negative”; the mutagenic call under setting [2] is “active; positive”; the mutagenic call (Test System: AMES SALMONELLA TYPHIMURIUM, Strain/Indicator: TA1535, Metabolic Activation: NONE, Method: SPOT TEST) was “inactive; negative”; the mutagenic call (Test System: AMES SALMONELLA TYPHIMURIUM, Strain/Indicator: TA1538, Metabolic Activation: NONE, Method: SPOT TEST) was “inactive; negative”. The mutagenic call (Test System: AMES SALMONELLA TYPHIMURIUM, Strain/Indicator: TA2637, Metabolic Activation: NONE, Method: STANDARD PLATE) is “active; positive” and the mutagenic call (Test System: CHINESE HAMSTER V-79, Strain/Indicator: V-79/6-THIOGUANINE (HGPRT), Metabolic Activation: NONE) was “inactive; negative”.

`O=C(c1ccccc1)C1OC1c1ccc(Oc2ccccc2)cc1` (stereo unspecified): the mutagenic call was “inactive; negative” under setting [1], “inactive; negative” under setting [3], “inactive; negative” under setting [2] and “inactive; negative” under setting [4].

For the compound `COc1ccc2c(c1)[C@H]1CCCC[C@@H]1[C@@H]1O[C@H]21`, the mutagenic call under setting [1] was “inactive; negative” and the mutagenic call under setting [2] was “inactive; negative”.
